Assay results as given in patent publication US20200031825A1, “HETEROAROMATIC-FUSED IMIDAZOLYL AMIDES, COMPOSITIONS AND USES THEREOF AS STING AGONISTS” (Trillium Therapeutics Inc., priority 2018, published 2020).
pEC50: −log10 of the molar value.

Columns and labels:
[1] = tested on: mouse dendritic cells (m-DCs); experiment: Cellular Functional Assay II: secreted IFN-β from mouse dendritic cells; type: cell-based; conditions: m-DC, 10 uM
Method: (§1) Activation of STING in primary cells was determined by measuring levels of secreted IFN-β from human monocyte-derived macrophages (h-MDMs)/dendritic cells (h-DCs) and/or mouse dendritic cells (m-DCs) after treatment with A.
(§2) Human CD14+ cells were first isolated from human peripheral blood mononuclear cells (PBMCs) with Stemcell Easysep Monocyte Isolation™ kit. Human CD14+ cells were kept in conditioned media for 7-12 days to generate h-MDMs and h-DCs before use. After harvesting from C57BL/6 mouse femurs, bone marrow cells were culture in conditioned media for 7 days to generate m-DCs before use.
(§3) The Culture conditions for the various types of cells whereas noted in Table 2:
(§4) 0.5×10^6 cells in 50 ul buffer (50 mM HEPES, pH7.0; 100 mM KCl; 3 mM MgCl2, 0.1 mM DTT; 85 mM Sucrose; 0.2% BSA, 1 mM ATP) in 96-well round bottom plate. Compound (formulated in DMSO) or DMSO (control) were added into each well and the plate incubate at 37° C. for 30 minutes. Cells were washed twice with 100 uL of fresh media and incubated at 37° C. for an additional 6 hours. After 6 hour of incubation, the supernatant was collected and a Cytometry Bead Assay™ (CBA, BioLegend) was used to measure […] levels.

[2] = molecular target: T1, mSTING-wt (Mus musculus, UniProt Q3TBT3); experiment: Cellular Functional Assay I: ISRE-SEAP reporter in HEK-293T-Dual Null cells transfected with mouse STING; type: cell-based; conditions: SEAP reporter
T1 sequence (Q3TBT3 1-378): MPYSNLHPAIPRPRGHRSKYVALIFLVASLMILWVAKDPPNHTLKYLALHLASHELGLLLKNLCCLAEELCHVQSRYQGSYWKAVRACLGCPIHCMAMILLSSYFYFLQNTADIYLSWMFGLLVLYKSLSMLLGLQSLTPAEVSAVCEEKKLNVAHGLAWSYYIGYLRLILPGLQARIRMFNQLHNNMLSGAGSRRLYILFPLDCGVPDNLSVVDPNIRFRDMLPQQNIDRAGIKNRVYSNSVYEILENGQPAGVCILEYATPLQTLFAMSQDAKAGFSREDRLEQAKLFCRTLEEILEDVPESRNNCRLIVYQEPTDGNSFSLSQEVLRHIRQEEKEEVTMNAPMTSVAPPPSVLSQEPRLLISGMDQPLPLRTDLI

[3] = molecular target: hSTING-HAQ (Homo sapiens, UniProt Q86WV6, G230A/H232R/R293Q/R71H); experiment: Cellular Functional Assay I: ISRE-SEAP reporter in HEK-293T-Dual Null cells transfected with hSTING-HAQ; type: cell-based
Chain of hSTING-HAQ (Q86WV6 whole entry R71H/G230A/H232R/R293Q): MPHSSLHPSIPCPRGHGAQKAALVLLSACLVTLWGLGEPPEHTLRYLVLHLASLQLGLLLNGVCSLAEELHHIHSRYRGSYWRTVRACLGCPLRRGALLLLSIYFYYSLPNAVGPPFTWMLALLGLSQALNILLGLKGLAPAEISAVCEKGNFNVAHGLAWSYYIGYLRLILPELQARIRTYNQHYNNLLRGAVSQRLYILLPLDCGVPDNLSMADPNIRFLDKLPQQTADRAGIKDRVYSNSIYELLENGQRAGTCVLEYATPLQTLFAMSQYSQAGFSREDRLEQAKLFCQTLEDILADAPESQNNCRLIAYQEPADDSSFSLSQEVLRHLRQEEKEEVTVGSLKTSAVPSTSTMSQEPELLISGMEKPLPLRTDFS

[4] = tested on: murine A20 model of B cell lymphoma; experiment: In vivo syngeneic A20 mouse tumor model; conditions: Balb/c mice
Method: The in vivo efficacy of exemplary compound I(c) was evaluated in a murine A20 model of B cell lymphoma. A20 cells were maintained in RPMI1640/10% FBS. Approximately 4×10^6 A20 cells were injected subcutaneously in 0.1 mL PBS into the right flanks of immunocompetent female Balb/c mice. Tumors were permitted to grow for six days after initial inoculation before the animals were segregated into treatment group. Study groups were treated with 25 μg of B formulated in an appropriate vehicle. Exemplary compound B was dosed intratumorally at the proximal tumor (right flank) on days 6, 8, and 11 of the study. Only animals in good health were used for dosing. Since the effects of the test article on the animals were not known, animals were closely observed for 1 h following dosing and at each tumor measurement time point over the course of the study. Any adverse reactions to the administration of the test material were noted and tabulated. […] Systemic toxicity of the treatments was evaluated by body weight change. Tumor volume was measured every 2 days using standard caliper measurement techniques.

[5] = molecular target: T2, hSTING-AQ (Homo sapiens, UniProt Q86WV6, G230A/R293Q); experiment: Cellular Functional Assay I: ISRE-SEAP reporter, hSTING-AQ allele; type: cell-based
T2 construct: expressed in transfected cells
T2 sequence (Q86WV6 whole entry G230A/H232R/R293Q): as the sequence (Q86WV6 whole entry R71H/G230A/H232R/R293Q) above, with H71R counted along it

[6] = molecular target: T3, hSTING-Q (Homo sapiens, UniProt Q86WV6, R293Q); experiment: Cellular Functional Assay I: ISRE-SEAP reporter, hSTING-Q allele; type: cell-based
T3 construct: expressed in transfected cells
T3 sequence (Q86WV6 whole entry R293Q): as the sequence (Q86WV6 whole entry R71H/G230A/H232R/R293Q) above, with H71R, A230G, R232H counted along it

[7] = molecular target: hSTING-wt (Homo sapiens, UniProt Q86WV6); experiment: Cellular Functional Assay I: ISRE-SEAP reporter in HEK-293T-Dual Null cells transfected with hSTING-wt; type: cell-based
Chain of hSTING-wt (Q86WV6 whole entry H232R): as the sequence (Q86WV6 whole entry R71H/G230A/H232R/R293Q) above, with H71R, A230G, Q293R counted along it

[8] = tested on: human dendritic cells (h-DCs); experiment: Cellular Functional Assay II: secreted IFN-β from human dendritic cells; type: cell-based; conditions: h-DC
Method: as §1, §2, §3, §4

[9] = molecular target: hSTING-H232 (Homo sapiens, UniProt Q86WV6); experiment: Cellular Functional Assay I: ISRE-SEAP reporter in HEK-293T-Dual Null cells transfected with hSTING-H232; type: cell-based
Chain of hSTING-H232 (Q86WV6 whole entry): as the sequence (Q86WV6 whole entry R71H/G230A/H232R/R293Q) above, with H71R, A230G, R232H, Q293R counted along it

[10] = A20 tumor, 25 μg intratumorally on days 6, 8 and 11

Compound: CCn1nc(C)cc1C(=O)Nc1nc2cc(C(N)=O)cnc2n1C/C=C/Cn1c(NC(=O)c2cc(C)nn2CC)nc2cc(C(N)=O)cc(C)c21.Cl.Cl.Cl.Cl [Compound B, 3-[(E)-4-[5-carbamoyl-2-[(2-ethyl-5-methyl-pyrazole-3-carbonyl)amino]-7-methyl-benzimidazol-1-yl]but-2-enyl]-2-[(2-ethyl-5-methyl-pyrazole-3-carbonyl)amino]imidazo[4,5-b]pyridine-6-carboxamide Tetrahydrochloride]
- IFN-β level [1]: >60,000 pg/ml
- EC50 level, mouse STING [2]: pM or nM level
- pEC50 ([2]; HEK-293T-Dual Null, mSTING-wt, read-out: EC50 mSTING-wt): 6.30 to 9.00
- EC50 level, human STING HAQ [3]: pM or nM level
- pEC50 ([3]; HEK-293T-Dual Null, hSTING-HAQ): 6.30 to 9.00
- dose related toxicity as measured by body weight loss ([4]; 25 μg dose group): no dose related toxicity
- animals with complete tumor regression [4, 10]: 80%
- tumoricidal effect at the injected tumor [4, 10]: significant tumoricidal properties
- pEC50 [5]: 6.30 to 9.00
- pEC50 [6]: 6.30 to 9.00
- EC50 level, human STING WT [7]: pM or nM level
- pEC50 ([7]; HEK-293T-Dual Null, hSTING-wt): > 9.00
- IFN-β level ([8]; 0.1 uM): >800 pg/mL
- IFN-β level ([8]; 1 uM): >1,000 pg/ml
- IFN-β level ([8]; 10 uM): >1,000 pg/ml
- EC50 level, human STING REF (also called H232) [9]: pM or nM level
- pEC50 ([9]; HEK-293T-Dual Null, hSTING-H232): > 9.00
